Values quoted from earlier work in patent publication US8492081B2, “Aldehyde-fixed, dried platelets with covalently attached exogenous active agent and method of making thereof” (The University of North Carolina at Chapel Hill, priority 2003, dated 2013).

Assays:
Punta Toro virus = settings: free ribavirin, not loaded on platelets; previously shown
[1] = Crotty et al., 2002

**Q.** Which “concentration range shown to inhibit Punta Toro virus replication in vitro” value (Punta Toro virus) does the source give for NC(=O)c1ncn([C@@H]2O[C@H](CO)[C@@H](O)[C@H]2O)n1 [ribavirin] here?
**A.** Its value is 4-10 micrograms per ml.

**Q.** And the “concentration range that exhibits antiviral activity in tissue culture” value [1]?
**A.** Its value is 10 to 100 µM.
